Measured values reported in patent US20230346827A1 (priority 2020, published 2023).

System: human PBMC
Assay: Stimulated cytokine release from human PBMC (5-plex Luminex: IFNγ, IL-8, TNFα, IL-1β, IL-10)
Type: cell-based
Protocol: Example 9 investigated the ability of LMW-DS to modify the secretion of IL-6 from human PBMC arising from the use of various stimuli. The present study performed a broader analysis of the cell culture supernatants arising from Example 9. Thus, peripheral blood mononuclear cells (PBMC) were isolated from healthy donors through Ficoll-Paque PLUS density centrifugation. The PBMC were cultured at 2×10^5 cells/well in the absence (unstimulated PBS vehicle controls) or presence of stimulation (LPS, peptidoglycan, pokeweed mitogen, PHA-L, CpG + IL-15, or Cytostim) in the absence (vehicle) or presence of LMW-DS (Tikomed AB, Viken, Sweden, WO 2016/076780; three concentrations; top concentration 600 µg/ml, 200 µg/ml and 60 µg/ml) for 24 hours at 37° C., 5% CO2.
Accordingly, the treatments were as follows for each PBMC donor: • i. Vehicle • ii. Simulation • iii. Stimulation + LMW-DS (60 µg/ml) • iv. Stimulation + LMW-DS (200 µg/ml) • v. Stimulation + LMW-DS (600 µg/ml) with each assessed in triplicate such that the total numbers of samples were: • 1. LPS; 165 samples (from 11 donors) • 2. Peptidoglycan from B. subtilis; 90 samples (from 6 donors) • 3. PHA-L; 90 samples (from 6 donors) • 4. 0.2 µM CpG + IL-15; 90 samples (from 6 donors) • 5. 1.0 µM CpG + IL-15; 90 samples (from 6 donors) • 6. Pokeweed mitogen; 90 samples (from 6 donors) • 7. 10 µl/ml Cytostim; 90 samples (from 6 donors) • 8. 30 µl/ml Cytostim; 90 samples (from 6 donors)
Following treatment, cell culture supernatants were removed, centrifuged and stored at -20° C. before thawing for multiplex analysis of various cytokines using the 5-plex human magnetic Luminex assay from R&D systems (Cat. No. LXSAHM-05). Luminex analysis was carried out exactly following manufacturer’s protocols.

[1] = LPS, highest concentration of LMW-DS

## sodium salt of dextran sulfate [LMW-DS]
CpG + IL-15
  IL-8 secretion response: little impact
Cytostim
  IL-10 secretion: concentration dependent large reduction
  secretion of IFNγ, IL-1β, IL-8, TNFα: small reductions
LPS, LMW-DS 60-600 µg/ml
  IFNγ secretion: concentration dependent but small reduction
  IL-10 secretion: concentration dependent but small reduction
[1]
  IL-1β secretion: modest reduction
  IL-8 secretion: modest reduction
  TNFα secretion: modest reduction
PHA-L
  IFNγ release: small decreases
  IL-8 release: small decreases
  IL-10 secretion: large, concentration dependent decrease
  TNFα release: small decreases
peptidoglycan
  IL-1β secretion: increases
  TNFα secretion: increases
peptidoglycan, LMW-DS up to 600 µg/ml
  general reduction in cytokine release: little evidence
Pokeweed mitogen
  IL-10 secretion: concentration-dependent decrease
  secretion of IFNγ, IL-1β, IL-8, TNFα: not impacted generally
